Results from patent publication US6677368B2, “4-aryl substituted indolinones” (Sugen, Inc., priority 2000, dated 2004).

What was measured:
Format in all cases: biochemical
[1] = biological target: T1, PDGFR (UniProt P09619); test: PDGFR bioassay (ELISA, in vitro kinase activity); settings: PDGFR-β expressing NIH 3T3 cell lysate, 20 μM ATP
T1 construct: PDGFR-β expressing NIH 3T3 cell lysate (SUGEN, Inc.)
Experimental: This assay is used to the in vitro kinase activity of PDGFR in an ELISA assay.
1. Corning 96-well ELISA plates
2. 28D4C10 monoclonal anti-PDGFR antibody (SUGEN, Inc.).
5. Blocking Buffer (same as for EGFR bioassay).
6. PDGFR-β expressing NIH 3T3 cell lysate (SUGEN, Inc.).
11. Kinase buffer phosphorylation mix: for 10 ml, mix 250 μl 1M TRIS, 200 μl 5M NaCl, 100 μl 1M MnCl2 and 501l 100 mM Triton X-100 in enough dH2O to make 10 ml.
12. NUNC 96-well V bottom polypropylene plates.
14. Rabbit polyclonal anti-phosphotyrosine serum (SUGEN, Inc.).
15. Goat anti-rabbit IgG peroxidase conjugate (Biosource Cat. No. ALI0404).
17. Hydrogen peroxide, 30% solution.
1. Coat Corning 96 well ELISA plates with […] 28D4C 10 in 100 μl PBS per well, hold overnight at 4° C.
2. Remove unbound 28D4C10 from wells by inverting plate to remove liquid. Wash 1× with dH2O. Pat the plate on a paper towel to remove excess liquid.
3. Add 150 μl of Blocking Buffer to each well. Incubate for 30 min. at room temperature with shaking.
4. Wash plate 3× with deionized water, then once with TBST. Pat plate on a paper towel to remove excess liquid and bubbles.
5. Dilute lysate in HNTG (10 μg lysate/100 μl HNTG).
6. Add 100 μl of diluted lysate to each well. Shake at room temperature for 60 min.
7. Wash plates as described in Step 4.
8. Add 80 μl working kinase buffer mix to ELISA plate containing captured PDGFR.
9. Dilute test compound 1:10 in TBS in 96-well polypropylene plates.
10. Add 10 μl diluted test compound to -ELISA plate. To control wells, add 10 μl TBS+10% DMSO. Incubate with shaking for 30 minutes at room temperature.
11. Add 10 μl ATP directly to all wells except negative control well (final well volume should be approximately 100 μl with 20 μM ATP in each well.) Incubate 30 minutes with shaking.
12. Stop reaction by adding 10 μl of EDTA solution to each well.
13. Wash 4× with deionized water, twice with TBST.
14. Add 100 μl anti-phosphotyrosine (1:3000 dilution in TBST) per well.
Incubate with shaking for 30-45 min. at room temperature.
16. Add 100 μl Biosource Goat anti-rabbit IgG peroxidase conjugate (1:2000 dilution in TBST) to each well. Incubate with shaking for 30 min. at room temperature.
18. Add 100 μl of ABTS/H2O2 solution to each well.
19. Incubate 10 to 30 minutes with shaking. Remove any bubbles.
20. If necessary stop reaction with the addition of 100 μl 0.2 M HCl per well.
21. Read assay on Dynatech MR7000 ELISA reader with test filter at 410 nM and reference filter at 630 nM.

[2] = biological target: P38 (Homo sapiens, UniProt Q16539); test: P38 kinase inhibition
[3] = biological target: EGFR (Homo sapiens, UniProt P00533); test: EGFR kinase inhibition
[4] = biological target: FGFR1 (Homo sapiens, UniProt P11362); test: FGFR1 bioassay (ELISA, in vitro kinase activity); settings: purified GST-FGFR1, poly(Glu-Tyr) substrate
Experimental: This assay is used to measure the in vitro kinase activity of FGF1-R in an ELISA assay.
1. Costar 96-well ELISA plates (Corning Catalog #3369).
2. Poly(Glu-Tyr) (Sigma Catalog #P0275).
4. 50 mM Hepes Buffer Solution.
5. Blocking Buffer (5% BSA/PBS).
6. Purified GST-FGFR1 (SUGEN, Inc.)
7. Kinase Dilution Buffer. Mix 500 μl 1M Hepes (GIBCO), 20 μl 5% BSA/PBS, 10 μl 100 mM sodium orthovanadate and 50 μl 5M NaCl.
9. ATP/MnCl2 phosphorylation mix: mix 20 μL ATP, 400 μL 1M MnCl2 and 9.56 ml dH2O.
10. NUNC 96-well V bottom polypropylene plates (Applied Scientific Catalog #AS-72092).
12. 0.05% TBST Add 500 μL TWEEN to 1 liter TBS.
13. Rabbit polyclonal anti-phosphotyrosine serum (SUGEN, Inc.).
14. Goat anti-rabbit IgG peroxidase conjugate (Biosource, Catalog #ALI0404).
1. Coat Costar 96 well ELISA plates with 1 μg per well Poly(Glu-Tyr) in 100 μl PBS. Store overnight at 4° C.
2. Wash coated plates once with PBS.
3. Add 150 μL of 5%BSA/PBS Blocking Buffer to each well. Incubate, with shaking, for 1 hr at room temperature.
4. Wash plate 2× with PBS, then once with 50 mM Hepes. Pat plates on a paper towel to remove excess liquid and bubbles.
5. Add 25 μL of 0.4 mM test compound in 4% DMSO or 4% DMSO alone (controls) to plate.
6. Dilute purified GST-FGFR1 in Kinase Dilution Buffer (5 ng kinase/50 μl KDB/well).
7. Add 50 μL of diluted kinase to each well.
8. Start kinase reaction by adding 25 μl/well of freshly prepared ATP/Mn++ (0.4 ml 1M MnCl2, 40 μL 10 mM ATP, 9.56 ml dH2O), freshly prepared).
9. Stop reaction with 25 μL of 0.5M EDTA.
10. Wash plate 4× with fresh TBST.
11. Make up Antibody Dilution Buffer: For 50 ml, mix 5 ml of 5% BSA, 250 μl of 5% milk and 50 μl of 100 mM sodium vanadate, bring to final volume with 0.05% TBST.
12. Add 100 μl per well of anti-phosphotyrosine (1:10000 dilution in ADB). Incubate, with shaking for 1 hr. at room temperature.
14. Add 100 μl per well of Biosource Goat anti-rabbit IgG peroxidase conjugate (1:6000 dilution in ADB). Incubate, with shaking for 1 hr. at room temperature.
15. Wash as in step 10 and then with PBS to remove bubbles and excess TWEEN.
16. Add 100 μl of ABTS/H2O2 solution to each well.
17. Incubate, with shaking, for 10 to 20 minutes. Remove any bubbles.
18. Read assay on Dynatech MR7000 ELISA reader: test filter at 410 nM, reference filter at 630 nM.

[5] = biological target: FGFR3 (Homo sapiens, UniProt P22607); test: FGFR3 kinase inhibition
Chain of FGFR3 (P22607 23-806, species assumed): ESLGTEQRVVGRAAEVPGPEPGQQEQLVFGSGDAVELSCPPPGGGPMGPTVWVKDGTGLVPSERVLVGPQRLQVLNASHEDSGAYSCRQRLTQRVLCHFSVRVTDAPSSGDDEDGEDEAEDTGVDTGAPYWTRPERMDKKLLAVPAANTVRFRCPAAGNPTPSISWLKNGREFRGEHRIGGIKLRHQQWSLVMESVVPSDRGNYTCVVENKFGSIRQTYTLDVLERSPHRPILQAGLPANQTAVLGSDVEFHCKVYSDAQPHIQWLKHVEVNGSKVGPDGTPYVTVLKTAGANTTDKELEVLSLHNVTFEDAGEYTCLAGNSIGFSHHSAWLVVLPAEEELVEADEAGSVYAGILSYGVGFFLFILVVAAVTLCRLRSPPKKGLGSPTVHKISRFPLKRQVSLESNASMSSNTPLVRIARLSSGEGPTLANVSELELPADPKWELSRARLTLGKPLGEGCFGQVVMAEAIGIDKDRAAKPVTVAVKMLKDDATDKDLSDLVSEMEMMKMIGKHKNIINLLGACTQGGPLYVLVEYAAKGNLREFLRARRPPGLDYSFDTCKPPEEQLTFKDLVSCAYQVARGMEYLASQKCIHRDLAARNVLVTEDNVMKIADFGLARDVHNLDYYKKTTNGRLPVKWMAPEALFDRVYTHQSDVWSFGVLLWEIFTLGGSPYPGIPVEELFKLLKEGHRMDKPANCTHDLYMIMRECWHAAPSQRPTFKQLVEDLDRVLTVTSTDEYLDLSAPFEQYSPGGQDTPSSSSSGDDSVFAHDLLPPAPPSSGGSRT

Chain of P38 (Q16539 whole entry): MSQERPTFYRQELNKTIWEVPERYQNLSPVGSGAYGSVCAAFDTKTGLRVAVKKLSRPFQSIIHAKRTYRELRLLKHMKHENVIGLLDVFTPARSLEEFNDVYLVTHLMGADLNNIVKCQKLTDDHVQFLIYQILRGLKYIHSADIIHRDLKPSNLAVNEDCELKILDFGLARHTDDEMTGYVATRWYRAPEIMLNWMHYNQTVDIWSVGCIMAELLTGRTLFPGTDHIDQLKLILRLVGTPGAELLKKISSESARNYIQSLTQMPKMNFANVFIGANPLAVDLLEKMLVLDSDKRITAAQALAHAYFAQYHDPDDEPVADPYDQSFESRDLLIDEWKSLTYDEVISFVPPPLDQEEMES
Chain of EGFR (P00533 25-1210, species assumed): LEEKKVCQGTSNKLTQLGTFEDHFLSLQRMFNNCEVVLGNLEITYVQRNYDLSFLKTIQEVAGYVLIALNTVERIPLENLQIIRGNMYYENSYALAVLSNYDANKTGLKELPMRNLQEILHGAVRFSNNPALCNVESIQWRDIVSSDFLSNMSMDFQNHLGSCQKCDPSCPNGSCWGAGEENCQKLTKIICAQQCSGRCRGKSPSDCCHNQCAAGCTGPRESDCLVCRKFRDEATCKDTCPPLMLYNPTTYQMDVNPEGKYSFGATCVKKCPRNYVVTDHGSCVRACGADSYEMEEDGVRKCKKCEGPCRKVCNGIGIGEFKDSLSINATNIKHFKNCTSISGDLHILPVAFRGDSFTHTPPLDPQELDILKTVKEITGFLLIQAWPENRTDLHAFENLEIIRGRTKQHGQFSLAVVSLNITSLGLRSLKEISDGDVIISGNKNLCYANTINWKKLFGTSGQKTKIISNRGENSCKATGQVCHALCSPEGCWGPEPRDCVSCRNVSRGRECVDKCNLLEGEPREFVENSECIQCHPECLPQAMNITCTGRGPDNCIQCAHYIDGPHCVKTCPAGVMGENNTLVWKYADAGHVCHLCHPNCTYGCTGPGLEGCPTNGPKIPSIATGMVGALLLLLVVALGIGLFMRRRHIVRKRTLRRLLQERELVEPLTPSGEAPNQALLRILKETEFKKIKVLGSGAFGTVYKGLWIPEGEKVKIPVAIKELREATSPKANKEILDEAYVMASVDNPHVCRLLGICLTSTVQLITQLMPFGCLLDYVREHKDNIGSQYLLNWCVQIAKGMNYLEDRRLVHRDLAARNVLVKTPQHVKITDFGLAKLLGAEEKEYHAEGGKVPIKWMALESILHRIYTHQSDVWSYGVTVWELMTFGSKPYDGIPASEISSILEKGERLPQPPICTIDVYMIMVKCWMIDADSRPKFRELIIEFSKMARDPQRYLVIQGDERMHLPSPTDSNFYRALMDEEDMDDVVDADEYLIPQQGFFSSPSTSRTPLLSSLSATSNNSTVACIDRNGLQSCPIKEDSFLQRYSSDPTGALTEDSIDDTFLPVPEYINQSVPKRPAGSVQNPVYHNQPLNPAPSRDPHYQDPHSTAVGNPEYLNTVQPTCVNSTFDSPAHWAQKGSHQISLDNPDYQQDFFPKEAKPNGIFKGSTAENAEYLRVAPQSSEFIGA
Chain of FGFR1 (P11362 22-822, species assumed): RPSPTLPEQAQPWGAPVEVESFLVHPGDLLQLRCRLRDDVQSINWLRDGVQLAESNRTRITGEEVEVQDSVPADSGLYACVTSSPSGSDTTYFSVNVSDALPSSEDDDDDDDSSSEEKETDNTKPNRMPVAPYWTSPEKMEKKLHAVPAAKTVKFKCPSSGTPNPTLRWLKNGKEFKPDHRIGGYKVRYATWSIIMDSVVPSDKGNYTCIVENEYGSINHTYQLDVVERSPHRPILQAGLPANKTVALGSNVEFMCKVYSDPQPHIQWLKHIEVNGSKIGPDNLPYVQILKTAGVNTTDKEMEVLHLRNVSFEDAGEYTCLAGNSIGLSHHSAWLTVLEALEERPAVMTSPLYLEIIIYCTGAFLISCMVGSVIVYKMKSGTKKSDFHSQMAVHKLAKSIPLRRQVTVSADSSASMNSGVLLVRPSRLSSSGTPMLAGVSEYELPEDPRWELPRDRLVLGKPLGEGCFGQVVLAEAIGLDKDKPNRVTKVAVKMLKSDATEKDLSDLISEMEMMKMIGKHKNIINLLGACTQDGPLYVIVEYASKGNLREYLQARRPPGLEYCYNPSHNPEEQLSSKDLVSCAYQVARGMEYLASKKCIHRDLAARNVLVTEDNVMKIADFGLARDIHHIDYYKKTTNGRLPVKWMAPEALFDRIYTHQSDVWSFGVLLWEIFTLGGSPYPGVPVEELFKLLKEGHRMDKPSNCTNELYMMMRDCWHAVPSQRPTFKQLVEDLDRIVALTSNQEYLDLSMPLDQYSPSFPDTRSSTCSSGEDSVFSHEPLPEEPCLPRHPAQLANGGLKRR

Row | IC50 [1] [nM] | IC50 [2] [nM] | IC50 [3] [nM] | IC50 [4] [nM] | IC50 [5] [nM] | Structure (SMILES)
1 | 2950 | > 10000 | 16200 | 57 |  | Cc1[nH]c(/C=C2\C(=O)Nc3cccc(-c4ccc(F)cc4)c32)c(C)c1C(=O)NCCN1CCCC1 [Example 6, 5-[4-(4-Fluoro-phenyl)-2-oxo-1,2-dihydro-indol-3-ylidenemethyl]-2,4-dimethyl-1H-pyrrole-3-carboxylic Acid (2-Pyrrolidin-1-yl-ethyl)-amide]
2 | 2320 | > 10000 | 13100 | < 9.1 | 21 | CCN(CC)CCNC(=O)c1c(C)[nH]c(/C=C2\C(=O)Nc3cccc(-c4cccc(F)c4)c32)c1C [Example 13, 5-[4-(3-Fluoro-phenyl)-2-oxo-1,2-dihydro-indol-3-ylidenemethyl]-2,4-dimethyl-1H-pyrrole-3-carboxylic Acid (2-Diethylamino-ethyl)-amide]
3 | 10400 | 9500 | 9330 | 1190 | 350 | CCOC(=O)c1c(C)[nH]c(/C=C2\C(=O)Nc3cccc(-c4cccc(F)c4)c32)c1CCCN1CCN(C)CC1 [Example 18, 5-[4-(3-Fluoro-phenyl)-2-oxo-1,2-dihydro-indol-3-ylidenemethyl]-2-methyl-4-[3-(4-methyl-piperazin-1-yl)-propyl]-1H-pyrrole-3-carboxylic Acid Ethyl Ester]
4 | 11100 | > 10000 |  | 190 | 380 | COc1ccc(-c2cccc3c2/C(=C/c2[nH]c(C)c(C(=O)N4C[C@@H](C)N[C@@H](C)C4)c2C)C(=O)N3)cc1 [Example 40, 3-[4-((cis)-3,5-Dimethyl-piperazine-1-carbonyl)-3,5-dimethyl-1H-pyrrol-2-ylmethylene]-4-(4-methoxy-phenyl)-1,3-dihydro-indol-2-one]
5 | 3840 | > 10000 |  | 560 | 790 | COc1ccc(-c2cccc3c2/C(=C/c2[nH]c(C)cc2C(=O)NCCN2CCCC2)C(=O)N3)cc1 [Example 41, 2-[4-(4-Methoxy-phenyl)-2-oxo-1,2-dihydro-indol-3-ylidenemethyl]-5-methyl-1H-pyrrole-3-carboxylic Acid (2-Pyrrolidin-1-yl-ethyl)-amide]
6 | 4190 | > 10000 |  | 22 | 9 | CCN(CC)CCNC(=O)c1c(C)[nH]c(/C=C2\C(=O)Nc3cccc(-c4cccc(OC)c4)c32)c1C [Example 46, 5-[4-(3-Methoxy-phenyl)-2-oxo-1,2-dihydro-indol-3-ylidenemethyl]-2,4-dimethyl-1H-pyrrole-3-carboxylic Acid (2-Diethylamino-ethyl)-amide]
7 | 8390 | > 10000 |  | 600 | 190 | COc1cccc(-c2cccc3c2/C(=C/c2[nH]c(C)c(C(=O)NCCn4ccnn4)c2C)C(=O)N3)c1 [Example 48, 5-[4-(3-Methoxy-phenyl)-2-oxo-1,2-dihydro-indol-3-ylidenemethyl]-2,4-dimethyl-1H-pyrrole-3-carboxylic Acid (2-[1,2,3]Triazol-1-yl-ethyl)-amide]
8 | 1540 | > 10000 |  | 35 | < 9.1 | COc1cccc(-c2cccc3c2/C(=C/c2[nH]c(C)c(C(=O)NCCN(C(C)C)C(C)C)c2C)C(=O)N3)c1 [Example 52, 5-[4-(3-Methoxy-phenyl)-2-oxo-1,2-dihydro-indol-3-ylidenemethyl]-2,4-dimethyl-1H-pyrrole-3-carboxylic Acid (2-Diisopropylamino-ethyl)-amide]
9 | > 20000 | > 10000 |  | 1150 | 680 | Cc1[nH]c(/C=C2\C(=O)Nc3cccc(-c4ccc(Br)cc4)c32)c(C)c1C(=O)N1CCN(C)CC1 [Example 53]
10 | > 20000 | > 10000 |  | 260 | 87 | Cc1[nH]c(/C=C2\C(=O)Nc3cccc(-c4ccc(Br)cc4)c32)c(C)c1C(=O)N1C[C@@H](C)N[C@@H](C)C1 [Example 57, 4-(4-Bromo-phenyl)-3-[4-[(cis)-3,5-dimethyl-piperazine-1-carbonyl)-3,5-dimethyl-1H-pyrrol-2-ylmethylene]-1,3-dihydro-indol-2-one]
11 | 16100 | > 10000 |  | 250 | 220 | Cc1cc(C(=O)NCCN2CCCC2)c(/C=C2\C(=O)Nc3cccc(-c4ccc(Br)cc4)c32)[nH]1 [Example 58, 2-[4-(4-Bromo-phenyl)-2-oxo-1,2-dihydro-indol-3-ylidenemethyl]-5-methyl-1H-pyrrole-3-carboxylic Acid (2-Pyrrolidin-1-yl-ethyl)-amide]
12 | 9120 | 6300 |  | 21 | < 9.1 | CCN(CC)CCNC(=O)c1c[nH]c(/C=C2\C(=O)Nc3cccc(-c4ccc(Br)cc4)c32)c1C [Example 61, 5-[4-(4-Bromo-phenyl)-2-oxo-1,2-dihydro-indol-3-ylidenemethyl]-4-methyl-1H-pyrrole-3-carboxylic Acid (2-Diethylamino-ethyl)-amide]
13 | 2180 |  | 15000 | 240 | 94 | CCN(CC)CCNC(=O)c1c(C)[nH]c(/C=C2\C(=O)Nc3cccc(-c4cccc(Br)c4)c32)c1C [Example 63, 5-[4-(3-Bromo-phenyl)-2-oxo-1,2-dihydro-indol-3-ylidenemethyl]-2,4-dimethyl-1H-pyrrole-3-carboxylic Acid (2-Diethylamino-ethyl)-amide]
